Measured values taken from patent US20260206761A1, “HETEROARYL-TRIAZOLE COMPOUNDS AS PESTICIDES” (Bayer Aktiengesellschaft, priority 2019, published 2026).

Tests used:
Type in all cases: in vivo
[1] = test system: larvae of the banded cucumber beetle (Diabrotica balteata); experiment: Diabrotica balteata spray test; conditions: 168 h, application rate 100 g/ha (=32 pg/well), after 7 days, read-out: activity (efficacy: seedlings grown)
Procedure: Diabrotica balteata—spray test
(§1) Solvent: 78.0 parts by weight of acetone • • 1.5 parts by weight of dimethylformamide
(§2) Emulsifier: alkylarylpolyglycol ether
(§3) To produce a suitable preparation of active compound, 1 part by weight of active compound is mixed with the stated amount of solvent, and the concentrate is diluted with water, containing an emulsifier concentration of 1000 ppm, to the desired concentration. Further test concentrations are prepared by dilution with emulsifier containing water.
Soaked wheat seeds (Triticum aestivum) are placed in a multiple well plate filled with agar and some water and are incubated for 1 day to germinate (5 seeds per well). The germinated wheat seeds are sprayed with a test solution containing the desired concentration of the active ingredient. Afterwards each unit is infected with 10-20 larvae of the banded cucumber beetle (Diabrotica balteata).
After 7 days efficacy in % is determined. 100% means all the seedlings have grown up like in the untreated, uninfected control; 0% means none of the seedlings have grown.

[2] = test system: green peach aphid (Myzus persicae); experiment: Myzus persicae oral test; conditions: 120 h, application rate 4 ppm, after 5 days
Procedure: Solvent: 100 parts by weight acetone
To produce a suitable preparation of active compound, 1 part by weight of active compound is mixed with the stated amount of solvent, and the concentrate is diluted with water to the desired concentration.
50 μL compound solution is filled in microtiter plates and 150 μL IPL41 insect medium (33%+15% sugar) is added to obtain a total volume of 200 μL per well. Afterwards the plates are sealed with parafilm through which a mixed population of the green peach aphid (Myzus persicae) can suck on the compound preparation.
After 5 days mortality in % is determined. 100% means all aphids have been killed and 0% means none of the aphids have been killed.

[3] = test system: larvae of the southern green stink bug (Nezara viridula); experiment: Nezara viridula spray test; conditions: 96 h, after 4 days; for mortality at 100 g/ha: application rate 100 g/ha; for mortality at 500 g/ha: application rate 500 g/ha
Procedure: Nezara viridula—Spray Test
as §1, §2, §3
Barley plants (Hordeum vulgare) infested with larvae of the southern green stink bug (Nezara viridula) are sprayed with a test solution containing the desired concentration of the active ingredient.
After 4 days mortality in % is determined. 100% means all the stink bugs have been killed; 0% means none of the stink bugs have been killed.

[4] = test system: fall armyworm larvae (Spodoptera frugiperda); experiment: Spodoptera frugiperda spray test; conditions: 168 h, read-out: activity (mortality)
Procedure: Spodoptera frugiperda—Spray Test
Solvent: 78.0 parts by weight acetone • 1.5 parts by weight dimethylformamide
as §2
To produce a suitable preparation of active compound, 1 part by weight of active compound is mixed with the stated amount of solvents and is diluted with water, containing an emulsifier concentration of 1000 ppm, to the desired concentration. Further test concentrations are prepared by dilution with emulsifier containing water.
Maize (Zea mays) leaf sections are sprayed with a preparation of the active ingredient of the desired concentration. Once dry, the leaf sections are infested with fall armyworm larvae (Spodoptera frugiperda).
After 7 days mortality in % is determined. 100% means all caterpillars have been killed and 0% means none of the caterpillars have been killed.

[5] = test system: Rhipicephalus microplus larvae (strain Parkhurst, resistant against synthetic pyrethroids); experiment: Rhipicephalus (Boophilus) microplus in-vitro contact test, larval cattle tick; conditions: after 48 hours, read-out: activity (efficacy: larvae dead or moribund); for pest or weed control at 100 g/ha: application rate 1 pg/cm^2 (=100 g/ha); for pest or weed control at 500 g/ha: application rate 5 pg/cm^2 (=500 g/ha)
Procedure: Rhipicephalus (Boophilus) microplus—In-Vitro Contact Tests Larval Cattle Tick (Strain Parkhurst. Resistant Against Synthetic Pyrethroids)
(§4) 9 mg compound is solved in 1 mL acetone and diluted with acetone to the desired concentration. 250 μL of the test solution is filled in 25 mL glass test tubes and homogeneously distributed on the inner walls by rotation and tilting on a shaking device (2 h at 30 rpm). With a compound concentration of 900 ppm, an inner surface of 44.7 cm^2 and a homogeneous distribution, a dose of 5 μg/cm^2 is achieved.
After the solvent has evaporated, each test tube is filled with 20-50 cattle tick larvae (Rhipicephalus microplus), closed with a perforated lid and incubated in a horizontal position at 85% relative humidity and 27° C. in an incubator. After 48 hours efficacy is determined. The larvae are patted on the ground of the tubes and negative geotactic behaviour is recorded.
An efficacy of 100% means all larvae are dead or moribund; 0% means no larvae are dead or moribund.

[6] = test system: adult engorged female ticks (Rhipicephalus microplus); experiment: Rhipicephalus (Boophilus) microplus injection test; conditions: 168 h, application rate 4 pg/animal, egg deposition after 7 days, read-out: activity (efficacy: infertile eggs)
Procedure: Rhipicephalus (Boophilus) microplus—Injection Test
Solvent: dimethyl sulfoxide
To produce a suitable preparation of active compound, 10 mg of active compound are dissolved in 0.5 mL solvent, and the concentrate is diluted with solvent to the desired concentration.
Five adult engorged female ticks (Rhipicephalus microplus) are injected with 1 μL compound solution into the abdomen. The ticks are transferred into replica plates and incubated in a climate chamber.
After 7 days egg deposition of fertile eggs is monitored. Eggs where fertility is not visible are stored in a climate chamber till hatching after about 42 days. An efficacy of 100% means all eggs are infertile; 0% means all eggs are fertile.

[7] = test system: adult brown dog ticks (Rhipicephalus sanguineus); experiment: Rhipicephalus sanguineus in-vitro contact test, adult brown dog ticks; conditions: after 48 hours, read-out: activity (efficacy: ticks dead or moribund); for pest or weed control at 100 g/ha: application rate 1 pg/cm^2 (=100 g/ha); for pest or weed control at 5 µg/cm2, 500 g/ha: application rate 5 μg/cm^2 (=500 g/ha)
Procedure: Rhipicephalus sanguineus—In-Vitro Contact Tests with Adult Brown Dog Ticks
as §4
After the solvent has evaporated, each test tube is filled with 5-10 adult brown dog ticks (Rhipicephalus sanguineus), closed with a perforated lid and incubated in a lying position at room temperature and relative humidity. After 48 hours efficacy is determined. The ticks are patted on the ground of the tubes and are incubated on a heating plate at 45-50° C. for at most 5 minutes. Immotile or uncoordinated moving ticks, which are not able to escape the heat by climbing upwards, are marked as dead or moribund.
An efficacy of 100% means all ticks are dead or moribund; 0% means no ticks are dead or moribund.

SMILES | pest or weed control at 100 g/ha [1] | mortality at 4 ppm [2] | mortality at 100 g/ha [3] | mortality at 500 g/ha [3] | mortality at 100 g/ha [4] | pest or weed control at 100 g/ha [5] | pest or weed control at 500 g/ha [5] | pest or weed control at 4 pg [6] | pest or weed control at 100 g/ha [7] | pest or weed control at 5 µg/cm2, 500 g/ha [7]
COc1nc([C@H](C)NC(=O)c2cc(OC(F)(F)F)cc(S(C)(=O)=O)c2)n(-c2ccc(C#N)cn2)n1 [I-75] | 80% | 100% | 100% | 90% | 100% | – | – | – | – | –
C[C@H](NC(=O)c1cc(OC(F)(F)F)cc(S(C)(=O)=O)c1)c1nc(C2CC2)nn1-c1ccc(Cl)cn1 [I-69] | 100% | 100% | 90% | – | 100% | – | – | – | – | –
COc1nc([C@H](C)NC(=O)c2cc(OC(F)F)cc(C3CC3)c2)n(-c2ncc(Cl)cn2)n1 [I-76] | 100% | 100% | – | – | 100% | 100% | 100% | – | – | –
COc1nc([C@H](C)NC(=O)c2cc(OC(F)(F)F)cc(C3CC3)c2)n(-c2ccc(C#N)cn2)n1 [I-44] | 100% | 90% | – | – | 100% | 100% | 100% | 100% | 100% | 100%
COc1nc([C@H](C)NC(=O)c2cc(Cl)cc(S(=O)(=O)C(F)F)c2)n(-c2ccc(Cl)cn2)n1 [I-53] | 100% | 100% | – | – | 100% | – | – | – | – | –
C[C@H](NC(=O)c1cc(OC(F)F)cc(S(C)(=O)=O)c1)c1nc(C2CC2)nn1-c1ccc(C#N)cn1 [I-65] | 100% | 100% | 100% | 100% | 100% | – | – | – | – | –
C[C@H](NC(=O)c1cc(C(F)(F)F)cc(S(C)(=O)=O)c1)c1nc(C2CC2)nn1-c1ccc(Cl)cn1 [I-68] | 100% | 100% | – | – | 100% | – | – | – | – | –
C[C@H](NC(=O)c1cc(C2CC2)cc(S(C)(=O)=O)c1)c1nc(C2CC2)nn1-c1ccc(C#N)cn1 [I-49] | – | 100% | – | – | 100% | 100% | 100% | – | – | –
C[C@H](NC(=O)c1cc(F)cc(S(C)(=O)=O)c1)c1nc(C2CC2)nn1-c1ccc(Cl)cn1 [I-60] | 100% | 100% | 100% | 100% | 100% | 100% | 100% | – | 100% | 100%
COc1nc([C@H](C)NC(=O)c2cc(OC(F)F)cc(C3CC3)c2)n(-c2ccc(C#N)cn2)n1 [I-74] | 80% | 100% | – | – | 100% | 100% | 100% | – | – | –
C[C@H](NC(=O)c1cc(Cl)cc(S(C)(=O)=O)c1)c1nc(C2CC2)nn1-c1ccc(Cl)cn1 [I-58] | 100% | 100% | 100% | 100% | 100% | 100% | 100% | – | 100% | 80%
C[C@H](NC(=O)c1cc(Cl)cc(S(=O)(=O)C2CC2)c1)c1nc(C2CC2)nn1-c1ccc(Cl)cn1 [I-59] | 80% | 100% | 100% | 100% | 100% | 100% | 100% | – | – | –
C[C@H](NC(=O)c1cc(OC(F)F)cc(C2CC2)c1)c1ncnn1-c1ccc(C#N)cn1 [II-62] | 100% | 100% | – | – | 100% | 100% | 100% | 100% | 100% | 100%
COc1nc([C@H](C)NC(=O)c2cc(Cl)cc(S(=O)(=O)C3CC3)c2)n(-c2ccc(Cl)cn2)n1 [I-62] | 100% | 100% | – | – | 100% | – | – | – | – | –
COc1nc([C@H](C)NC(=O)c2cc(Cl)cc(S(=O)(=O)C(F)F)c2)n(-c2ccc(C#N)cn2)n1 [I-55] | 100% | 100% | – | – | 100% | 100% | 100% | – | – | –
COc1nc([C@H](C)NC(=O)c2cc(Br)cc(C3(F)CC3)c2)n(-c2ccc(C#N)cn2)n1 [I-71] | 100% | 100% | – | – | 100% | 100% | 100% | – | – | –
